Data from US9958451B2, “Near-infrared fluorescent dyes with large stokes shifts” (Portland State University, priority 2011, dated 2018).
Read-outs that look alike come from different tables or passages of the source. Blank lines part the entries; values can stand above or below the compound they belong to.

Experiments:
[1] = UV-visible absorbance spectroscopy, 15 μM in 90% aqueous, 10% DMSO; assay type: physicochemical; conditions: for Red shift of absorption spectra from 3-1 transposition versus known regiochemistry: depending on the ionization state
Experimental: Compounds 21 and 7 were characterized by UV-visible spectroscopy (FIG. 15). Absorbance was measured using 15 μM solutions of each compound in a solution that was 90% aqueous, 10% DMSO. The peaks at 600 nm (light dashed line) and 675 nm (light solid line) represent the dianions of compounds 21 and 7, respectively, in NaOH (pH 12). The peaks at 590 nm (heavy dashed line) and 650 nm (heavy solid line) represent a mix of mono- and dianions of compound 21 at pH 7.4 and predominantly monoanions of compound 7 at pH 9, respectively.
Compounds 22 and 8 were characterized by UV-visible spectroscopy (FIG. 16). Absorbance was measured using 15 μM solutions of each compound in a solution that was 90% aqueous, 10% DMSO. The peaks at 610 nm (light dashed line) and 685 nm (light solid line) represent the anions of compounds 22 and 8, respectively, in NaOH (pH 12). The peaks at 605 nm (heavy dashed line) and 805 nm (heavy solid line) represent the neutral forms of compounds 22 and 8 at pH 7.4, respectively.
Compounds 20a and 15a were characterized by UV-visible spectroscopy (FIG. 17). Absorbance was measured using 15 μM solutions of each compound in a solution that was 90% aqueous, 10% DMSO. The peaks at 545 nm (light dashed line) and 595 nm (light solid line) represent the respective anions, compounds 20c and 15h, in NaOH (pH 12).
Compound 15b (free amino) was characterized by UV-visible spectroscopy (FIG. 18), and compared to C.SNARF-5 (literature, SNARF=seminaphthorhodafluor). Absorbance was measured using a 15 μM solution of compound 15b in a solution that was 90% aqueous, 10% DMSO. The peak at 535 nm (heavy line) represents the predominantly phenolic form of 15b at pH 6. The peak at 615 nm (light line) represents the phenoxide of compound 15b at in NaOH (pH12). In comparison, C.SNARF-5 produces a peak at 550 nm (anionic form) and a peak at 485 nm (neutral form) (Whitaker et al., Anal. Biochem. 1991, 194, 330-344).
Absorbance was measured using 15 μM solutions of compound 15d in a solution that was 90% aqueous, 10% DMSO. The peak at 570 nm (heavy line) represents the predominantly neutral form of 15d at pH 6. The peak at 630 nm (light line) represents the phenoxide of compound 15d in NaOH (pH 12).
Compounds 20b and 15g were characterized by UV-visible spectroscopy (FIG. 20). Absorbance was measured using 15 μM solutions of each compound in a solution that was 90% aqueous, 10% DMSO. The peaks at 540 nm (dashed line) and 570 nm (solid line) represent the cations of compounds 20b and 15g, respectively, at pH 7.4.

[2] = Fluorescence emission spectra, 15 μM in 90% aqueous, 10% DMSO; assay type: physicochemical; conditions: for Red-shifted emission from 3-1 transposition versus known regiochemistry: longest wavelength-emitting species
Experimental: Compounds 21 and 7 also were characterized by their fluorescence emission spectra. Fluorescence was measured using 15 μM solutions of each compound in a solution that was 90% aqueous, 10% DMSO. For compound 21, the longest wavelength emission observed from the dianions occurred near 680 nm at pH 9. For compound 7 (transposed), the longest wavelength emission observed from the monoanion occurred near 800 nm at pH 9.
Compounds 22 and 8 also were characterized by their fluorescence emission spectra. Fluorescence was measured using 15 μM solutions of each compound in a solution that was 90% aqueous, 10% DMSO For compound 22, the longest wavelength emission observed from the anion occurred near 690 nm at pH 9. […] Given the greater than 800 nm absorbance peak and the typically large Stokes shifts observed in this class of compounds, it is likely that the emission was beyond the working range of the instrument (>850 nm).
Compounds 20 and 15a also were characterized by their fluorescence emission spectra. Fluorescence was measured using 15 μM solutions of each compound in a solution that was 90% aqueous, 10% DMSO. For compound 20a, the longest wavelength emission observed from its corresponding anion, compound 20c, occurred near 640 nm in NaOH (pH 12). For compound 15a (transposed), the longest wavelength emission observed from the corresponding anion, compound 15h, occurred near 760 nm in NaOH.
Compound 15b also was characterized by its fluorescence emission spectrum and compared to C.SNARF-5. Fluorescence was measured using a 15 μM solution of compound 15b in a solution that was 90% aqueous, 10% DMSO. For C.SNARF-5, the longest wavelength emission observed from the anion occurred near 632 nm (Whitaker et al., Anal. Biochem. 1991, 194, 330-344). For compound 15b (transposed), the longest wavelength emission observed from the phenoxide occurred near 770 nm.
Fluorescence was measured using a 15 μM solution of compound 15d in a solution that was 90% aqueous, 10% DMSO. […] For compound 15d (transposed), the longest wavelength emission observed from the phenoxide occurred near 780 nm (NaOH, pH 12).
Compounds 20b and 15g also were characterized by their fluorescence emission spectra. Fluorescence was measured using 15 μM solutions of each compound in a solution that was 90% aqueous, 10% DMSO. For compound 20b, the longest wavelength emission observed from the cation occurred near 640 nm at pH 7.4. For compound 15g (transposed), the longest wavelength emission observed from the cation occurred near 770 nm at pH 7.4.

[3] = Effect of pH / ionization on spectra; assay type: physicochemical
Text: There are through-space polar interactions between R^18 and the internal bridge oxygen in compounds according to general formulas III, IX, and X. The field effect is further enhanced in the case of symmetric compounds, such as those according to general formula IV when R^19 is oxygen. A unique intramolecular hydrogen-bonding network also is present in such compounds, e.g., compound 8 (FIG. 25). This network produces enhanced negative charge density on the ionizable oxygen atoms, thereby promoting a relatively large bathochromic shift. […] The hydrogen bonding can be seen in compounds such as compound 8 by ^1H NMR spectroscopy. A redistribution of the electronic density around the hydrogen atom occurs upon hydrogen bond formation between the hydroxyl proton, the carbonyl, and the central oxygen of compound 8. […] Evidence of hydrogen bonding was also seen in compound 15a, but to a lesser degree. In compound 15a, the total hydrogen bond distance O—H—O between the hydroxyl at the R^18 position and the xanthene central oxygen is 2.95 Å, which falls in range of common hydrogen bonds.
Known seminaphthorhodafluors display long wavelength absorption at high pH; however, the free amino compound in this series respond to low pH with increased long wavelength absorption.

[4] = Quantum yield in 10:90 DMSO:aqueous solutions; assay type: physicochemical; conditions: 7.5 μM, 10:90 DMSO:aqueous
Experimental: The quantum yield of yellow-orange emitting 16a was 0.4649, 40 times greater than the corresponding neutral compound 15a. It was slightly higher than the yellow-green emitting neutral compound 20a, and >2 times higher than orange-red emitting anion 20c. The compounds (7.5 μM) were analyzed in 10:90 DMSO:aqueous solutions. Fluorescence emission was readily visible in a darkened room when the solutions were excited from below with 3-watt megaMAX 505 nm ALS system. The emission-enhancing properties afforded through the combination of the 3-1 transposition and methylation is in contrast to previously reported methyl ethers of seminaphthofluorescein compounds.

[5] = Absorbance and fluorescence in methanol; assay type: physicochemical
Experimental: Absorbance and fluorescence of compounds 22 and 8 also were measured in methanol. […] Thus, placement of the hydroxyl group proximal to the xanthene internal oxygen in compound 8 produced a bathochromic shift of 103 nm in the absorption spectrum. The transposition also imparted a corresponding shift in the excitation spectrum, and a large bathochromic shift of 128 nm in the fluorescence emission. Importantly, compound 8 absorbs and emits in the near-infrared with absorption and emission maxima of 701 nm and 816 nm, respectively.
Absorbance and fluorescence of compounds 20a and 15a also were measured in methanol. […] Thus, placement of the hydroxyl group proximal to the xanthene internal oxygen in compound 15a produced a bathochromic shift of 15 nm in the absorbance spectrum. The transposition also imparted a corresponding shift in the excitation spectrum, and a large bathochromic shift of 32 nm in the fluorescence emission.

[6] = Spectral properties of rhodamine bis-boronic acids and precursors in DMSO:buffer; assay type: physicochemical
Experimental: Characterization: The spectral properties of compounds 50-53 were determined. Absorption and fluorescence spectra of solutions of the rhodamine bis-boronic acids 51 and 53, and their respective precursors 50 and 52, are shown in FIGS. 27A-C (in DMSO:buffer 1:9) and 27D-F (DMSO:buffer 1:1). […] Excitation and emission spectra were normalized to their absorbance at the excitation wavelength, and are proportional to quantum yield.

[7] = 10 mM HEPES, pH 7.5, 15% (v/v) EtOH, Leytus et al., cited from earlier work
[8] = Emission in blood (whole porcine blood in buffer); conditions: 150 μM, 10% and 90% whole blood, excitation at 670 nm
Experimental: Compound 15d (Table 1) was diluted to 40 μM in 50% DMSO:50% 25 mM pH 9 phosphate buffer. […] Emission remained stable for at least 1 hr. The absorption profile matches the output of a laser pointer (635-670 nm; max output <5 mW).
Its absorbance and fluorescence spectra faded over time, but remained visible after about an hour (although with only 10-20% of its original emission intensity). Molecular modeling has shown favorable structural interactions of compounds 5f and 24 with glutathione (FIG. 12—compound 24).
Spectral behavior of compound 15g (type [c] annulated seminaphtho-rhodamine methyl ester (free amine) with the 3-1 transposition) was investigated to determine its potential for sensing use in whole blood. Solutions of compound 15g in 10% or 90% by volume whole blood (porcine blood in Na-EDTA, Lampire Biological Laboratories) were investigated in a 3×3 mm cell. The fluorophore was first dissolved in 50 mM, pH 7.4 phosphate buffer to ensure complete dissolution, and in the case of 90% whole blood, this stock solution was mixed with whole blood in a 1:9 ratio. In the case of 10% whole blood, 1 part whole blood was added to 9 parts of an appropriately diluted (with deionized water) solution of compound 15g stock. In both cases, the final concentration of compound 15g was 150 μM with a final phosphate buffer concentration of 5 mM. […] Throughout much of the spectrum, the dye produces a greater absorbance than the blood alone. The change in absorbance between the two spectra provides the effective absorbance of the dye. […] The broad absorption and large Stokes shift of this dye allows significant excitation with greater than 50% efficiency at wavelengths beyond that of the major hemoglobin peaks in blood.

[9] = NaOH (pH 12), anionic/phenoxide form, 90% aqueous 10% DMSO

SMILES: O=C1OC2(c3ccccc31)c1ccc3cccc(O)c3c1Oc1c2ccc2cccc(O)c12 [Compound 7]
Red shift of absorption spectra from 3-1 transposition versus known regiochemistry ([1]; 90% aqueous 10% DMSO): 60-75 nm
Absorbance peak [1, 9]: 675 nm
Absorbance peak ([1]; pH 9, predominantly monoanions): 650 nm
Stokes shift [2]: about 150 nm
Longest wavelength emission ([2]; NaOH (pH 12), anion/phenoxide): too weak to be detected or, more likely, beyond the working range of the instrument
Red-shifted emission from 3-1 transposition versus known regiochemistry [2]: about 120 nm
Longest wavelength emission ([2]; pH 9): ~800 nm
Form below physiological pH of 7.4 ([3]; 1:9 DMSO:buffer): colorless lactone

SMILES: COC(=O)c1ccccc1-c1c2ccc3cccc(O)c3c2oc2c1ccc1cccc(=O)c12 [Compound 8]
Red shift of absorption spectra from 3-1 transposition versus known regiochemistry ([1]; 90% aqueous 10% DMSO): 75-200 nm
Absorbance peak [1, 9]: 685 nm
Stokes shift [2]: unmeasurable
Red-shifted emission from 3-1 transposition versus known regiochemistry [2]: more than 160 nm
Longest wavelength emission ([2]; pH not stated): emission was not observed
Absorption maximum [5]: 701 nm
Bathochromic shift in the absorption spectrum versus known regiochemistry [5]: 103 nm
Bathochromic shift in the fluorescence emission versus known regiochemistry [5]: 128 nm
Emission maximum [5]: 816 nm
Shift of the absorption maximum on deprotonation [3]: does not result in a large bathochromic shift
pH up to which NIR fluorescence was observed [3]: ≤ 9

SMILES: Cc1ccc(C)c(-c2c3ccc4cccc(O)c4c3oc3c2ccc2cccc(=O)c23)c1 [Compound 10, 7-(2,5-dimethylphenyl)-13-hydroxy-1H-dibenzo[c,h]xanthen-1-one]
Shift of the absorption maximum on deprotonation [3]: hypsochromic

SMILES: COC(=O)c1ccccc1-c1c2ccc(=O)cc-2oc2c1ccc1cccc(N)c12 [Compound 15e]
Response of absorption to pH (pH titration) [3]: increased long wavelength absorption and decreased short wavelength absorption at low pH

SMILES: Cl.N=c1ccc2c(-c3ccccc3C(=O)O)c3ccc(N)cc3oc-2c1 [Rhodamine 110]
Em ([6]; DMSO:buffer 1:1): 526 nm
Ex ([6]; DMSO:buffer 1:1): 502 nm
ε ([6]; DMSO:buffer 1:1): 67905 M⁻¹ cm⁻¹
Abs ([6]; DMSO:buffer 1:1, pH 7.4 phosphate buffer 12.5 mM): 503 nm
Abs [7]: 495 nm
Em [7]: 523 nm
Q.Y. [7]: 0.91
Brightness ([7]; @ 492): 60788 @ 492
ε ([7]; @ 492): 66800 M⁻¹ cm⁻¹

More lines, now with the values ahead:

Quantum yield [4]: 0.4649
Quantum yield relative to anion 20c [4]: > 2 times
Quantum yield relative to neutral compound 15a [4]: 40 times
SMILES: COC(=O)c1ccccc1-c1c2ccc(=O)cc-2oc2c1ccc1cccc(OC)c12 [Compound 16a, methyl 2-(1-methoxy-10-oxo-10H-benzo[c]xanthen-7-yl)benzoate]

Red shift of absorption spectra from 3-1 transposition versus known regiochemistry ([1]; 90% aqueous 10% DMSO): about 30 nm
Absorbance peak ([1]; pH 7.4, 90% aqueous 10% DMSO): 570 nm
Enhancement of the Stokes shift by 3-1 transposition [2]: about 100 nm
Stokes shift [2]: about 200 nm
Red-shifted emission from 3-1 transposition versus known regiochemistry [2]: about 130 nm
Longest wavelength emission ([2]; pH 7.4, cation): ~770 nm
Emission spectrum maximum [8]: about 750 nm
SMILES: COC(=O)c1ccccc1-c1c2ccc(=N)cc-2oc2c1ccc1cccc(N)c12 [Compound 15g]
